The target of test [1] is recombinant human Mcl-1 (residues 171-327) / Bim interaction (Homo sapiens (Human), UniProt Q07820). Description: biochemical. The class given is binding. As to conditions: read-out: Mcl-1 HTRF IC50. (In TR-FRET formats the signal depends on donor and acceptor labels being close together.)
Test [2] deals with human multiple myeloma cell line, OPM-2. Description: Cell viability assay (OPM-2 10 FBS), CellTiter-Glo. The class given is cell-based. The gist of the method: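 3000 cells/well, RPMI 1640 + 10% FBS; serial compound dilutions, 16 h, 37 °C/5% CO2.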
[3] abbreviates: TR-FRET, Mcl-1(171-327) / biotin-Bim (51-76).
Setting [4] is: Homo sapiens, OPM-2, 16 h, read-out: OPM-2 10% FBS IC50 IP, OPM-2 cells, 10% FBS, 16 h, CellTiter-Glo.
Setting [5] is: read-out: OPM-2 10% FBS IC50 IP, OPM-2 cells, 10% FBS, 16 h, CellTiter-Glo.
Where [6] appears, read: 0.1 nM Mcl-1(171-327), 0.05 nM biotin-Bim (51-76).
The mark [7] stands for this setting: Homo sapiens, OPM-2, 16 h, read-out: OPM-2 10% FBS IC50 IP, OPM-2 cells, 10% FBS, 16 h incubation.

Read-outs that look alike come from different tables or passages of the source.

Chain of recombinant human Mcl-1 (residues 171-327) / Bim interaction (Q07820 171-327): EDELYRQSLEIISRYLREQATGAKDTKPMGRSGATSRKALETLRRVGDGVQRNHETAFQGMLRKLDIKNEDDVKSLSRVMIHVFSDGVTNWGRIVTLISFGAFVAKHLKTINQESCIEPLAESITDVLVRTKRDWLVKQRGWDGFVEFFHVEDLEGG

What is called IC50 is the point on the concentration scale where inhibition reaches its midpoint. Regarding `CCOC(=O)C(F)(F)[C@]1(O)/C=C/C[C@H](C)[C@@H](C)S(=O)(=O)NC(=O)c2ccc3c(c2)N(C[C@@H]2CC[C@H]21)C[C@@]1(CCCc2cc(Cl)ccc21)CO3` [Example 100416, ethyl ((1S,3′R,6′R,7′S,8′E,11′S,12′R)-6-chloro-7′-hydroxy-11′,12′-dimethyl-13′,13′-dioxido-15′-oxo-3,4-dihydro-2H-spiro[naphthalene-1,22′-[20]oxa[13]thia[1,14]diazatetracyclo [14.7.2.0~3,6~.0~19,24~]pentacosa[8,16,18,24]tetraen]-7′-yl)(difluoro)acetate], the IC50 in test [1] (setting [3]) stood at 0.092 nM; in test [2] (setting [4]) it was 86 nM.
In the case of `CO[C@]1(c2cncc(CN3CCOCC3)c2)/C=C/C[C@H](C)[C@@H](C)S(=O)(=O)NC(=O)c2ccc3c(c2)N(C[C@@H]2CC[C@H]21)C[C@@]1(CCCc2cc(Cl)ccc21)CO3` (stereo in doubt) [Example 100521], the IC50 came out at 0.197 nM in test [1] (setting [3]) and 296 nM in test [2] (setting [4]).
`C[C@@H]1[C@@H](C)CCC[C@@](O)(CCN2CCOCC2)[C@@H]2CC[C@H]2CN2C[C@@]3(CCCc4cc(Cl)ccc43)COc3ccc(cc32)C(=O)NS1(=O)=O` [Example 100096, (1S,3′R,6′R,7′R,11′S,12′R)-6-chloro-7′-hydroxy-11′,12′-dimethyl-7′-(2-(4-morpholinyl)ethyl)-3,4-dihydro-2H,15′H-spiro[naphthalene-1,22′-[20]oxa[13]thia[1,14]diazatetracyclo [14.7.2.0~3,6~.0~19,24~]pentacosa[16,18,24]trien]-15′-one 13′,13′-dioxide]: the results for the IC50 in test [1] (setting [3]) and in test [2] (setting [5]) were 0.624 nM and 517 nM, respectively.
On the same counts, the results for `COCCN(C)C(=O)C[C@]1(O)CCC[C@H](C)[C@@H](C)S(=O)(=O)NC(=O)c2ccc3c(c2)N(C[C@@H]2CC[C@H]21)C[C@@]1(CCCc2cc(Cl)ccc21)CO3` [Example 100141, 2-((1S,3′R,6′R,7′R,11′S,12′R)-6-chloro-7′-hydroxy-11′,12′-dimethyl-13′,13′-dioxido-15′-oxo-3,4-dihydro-2H-spiro[naphthalene-1,22′-[20]oxa[13]thia[1,14]diazatetracyclo [14.7.2.0~3,6~.0~19,24~]pentacosa[16,18,24]trien]-7′-yl)-N-(2-methoxyethyl)-N-methylacetamide] are 1.06 nM and 1370 nM.
In the case of `C=CCO[C@]1(CN2CCN3CCOC[C@@H]3C2)/C=C/C[C@H](C)[C@@H](C)S(=O)(=O)NC(=O)c2ccc3c(c2)N(C[C@@H]2CC[C@H]21)C[C@@]1(CCCc2cc(Cl)ccc21)CO3` [Example 46, (1S,3′R,6′R,7′R,8′E,11′S,12′R)-6-chloro-7′-((9aS)-hexahydropyrazino[2,1-c][1,4]oxazin-8(1H)-ylmethyl)-11′,12′-dimethyl-7′-(2-propen-1-yloxy)-3,4-dihydro-2H,15′H-spiro[naphthalene-1,22′-[20]oxa[13]thia[1,14]diazatetracyclo [14.7.2.0~3,6~.0~19,24~]pentacosa[8,16,18,24]tetraen]-15′-one 13′,13′-dioxide], the 50% inhibitory concentration (IC50) in test [1] (setting [6]) was determined as 0.107 nM; in test [2] (setting [7]), 167 nM.
On the same counts, the results for `CO[C@@]1(CN2CCN(CCO)CC2)/C=C/C[C@H](C)[C@@H](C)S(=O)(=O)NC(=O)c2ccc3c(c2)N(C[C@@H]2CC[C@H]21)C[C@@]1(CCCc2cc(Cl)ccc21)CO3` [Example 300, (1S,3′R,6′R,7′S,8′E,11′S,12′R)-6-chloro-7′-((4-(2-hydroxyethyl)-1-piperazinyl)methyl)-7′-methoxy-11′,12′-dimethyl-3,4-dihydro-2H,15′H-spiro[naphthalene-1,22′-[20]oxa[13]thia[1,14]diazatetracyclo [14.7.2.0~3,6~.0~19,24~]pentacosa[8,16,18,24]tetraen]-15′-one 13′,13′-dioxide] are 0.165 nM and 284 nM.
Regarding `C[C@@H]1[C@@H](C)C/C=C/[C@@]2(CCCO2)[C@@H]2CC[C@H]2CN2C[C@@]3(CCCc4cc(Cl)ccc43)COc3ccc(cc32)C(=O)NS1(=O)=O` (single isomer, unassigned) [Example 100159], the figures for the IC50 in test [1] (setting [3]) and in test [2] (setting [4]) were 0.559 nM and 591 nM, respectively.
For `C[C@@H]1[C@@H](C)C/C=C/[C@@](O)(CC(=O)N2CCOCC2)[C@@H]2CC[C@H]2CN2C[C@@]3(CCCc4cc(Cl)ccc43)COc3ccc(cc32)C(=O)NS1(=O)=O` [Example 100085, (1S,3′R,6′R,7′S,8′E,11′S,12′R)-6-chloro-7′-hydroxy-11′,12′-dimethyl-7′-(2-(4-morpholinyl)-2-oxoethyl)-3,4-dihydro-2H,15′H-spiro[naphthalene-1,22′-[20]oxa[13]thia[1,14]diazatetracyclo [14.7.2.0~3,6~.0~19,24~]pentacosa[8,16,18,24]tetraen]-15′-one 13′,13′-dioxide], the figures for the IC50 in test [1] and in test [2] (setting [4]) were 0.245 nM and 288 nM, respectively.
For the molecule `C[C@@H]1[C@@H](C)CCC[C@](O)(c2ccccn2)[C@@H]2CC[C@H]2CN2C[C@@]3(CCCc4cc(Cl)ccc43)COc3ccc(cc32)C(=O)NS1(=O)=O` [Example 100469, (1S,3′R,6′R,7′R,11′S,12′R)-6-chloro-7′-hydroxy-11′,12′-dimethyl-7′-(2-pyridinyl)-3,4-dihydro-2H,15′H-spiro[naphthalene-1,22′-[20]oxa[13]thia[1,14]diazatetracyclo [14.7.2.0~3,6~.0~19,24~]pentacosa[16,18,24]trien]-15′-one 13′,13′-dioxide], the IC50 was determined as 0.085 nM in test [1] (setting [3]) and 325 nM in test [2] (setting [4]).
In the case of “(1 S,3′R,6′R,7′R,8′E,11′S,12′R)-6-chloro-7′-methoxy-11′-methyl-12′-(2-(((2-methyl-2-propanyl)(diphenyl)silyl)oxy)ethyl)-7′-((9aR)-octahydro-2H-pyrido[1,2-a]pyrazin-2-ylmethyl)-3,4-dihydro-2H, 15′H-spiro[naphthalene-1,22′-[20]oxa[13]thia[1,14]diazatetracyclo[14.7.2.0-3,6˜.0˜19,24˜]pentacosa[8,16,18,24]tetraen]-15′-one 13′,13′-dioxide [Example 359]”, the IC50 is 2.08 nM in test [1] (setting [6]) and more than 33300 nM in test [2] (read-out: OPM-2 10% FBS IC50 IP, OPM-2 cells, 10% FBS, 16 h incubation).
Take `C[C@@H]1[C@@H](C)C/C=C/[C@@](C)(OCCN2CCOCC2)[C@@H]2CC[C@H]2CN2C[C@@]3(CCCc4cc(Cl)ccc43)COc3ccc(cc32)C(=O)NS1(=O)=O` [Example 100467, (1S,3′R,6′R,7′R,8′E,11′S,12′R)-6-chloro-7′,11′,12′-trimethyl-7′-(2-(4-morpholinyl)ethoxy)-3,4-dihydro-2H,15′H-spiro[naphthalene-1,22′-[20]oxa[13]thia[1,14]diazatetracyclo [14.7.2.0~3,6~.0~19,24~]pentacosa[8,16,18,24]tetraen]-15′-one 13′,13′-dioxide]: the half-inhibitory concentration (IC50) in test [1] (setting [3]) was determined as 0.303 nM; in test [2] (setting [4]) it was 516 nM.
In the same order, the values of `CO[C@@]1(C#CCCN2CCN(S(C)(=O)=O)CC2)/C=C/C[C@H](C)[C@@H](C)S(=O)(=O)NC(=O)c2ccc3c(c2)N(C[C@@H]2CC[C@H]21)C[C@@]1(CCCc2cc(Cl)ccc21)CO3` [Example 100488, (1S,3′R,6′R,7′S,8′E,11′S,12′R)-6-chloro-7′-methoxy-11′,12′-dimethyl-7′-(4-(4-(methylsulfonyl)-1-piperazinyl)-1-butyn-1-yl)-3,4-dihydro-2H,15′H-spiro[naphthalene-1,22′-[20]oxa[13]thia[1,14]diazatetracyclo [14.7.2.0~3,6~.0~19,24~]pentacosa[8,16,18,24]tetraen]-15′-one 13′,13′-dioxide] are 0.389 nM and 346 nM.
Take `CO[C@@]1(C[C@H](O)c2ccccn2)/C=C/C[C@H](C)[C@@H](C)S(=O)(=O)NC(=O)c2ccc3c(c2)N(C[C@@H]2CC[C@H]21)C[C@@]1(CCCc2cc(Cl)ccc21)CO3` (single isomer, unassigned) [Example 100489]: the half-inhibitory concentration (IC50) in test [1] (setting [3]) worked out at 0.88 nM; in test [2] (setting [5]), 182 nM.
For `CO[C@@]1(CC2=NCC(=O)O2)/C=C/C[C@H](C)[C@@H](C)S(=O)(=O)NC(=O)c2ccc3c(c2)N(C[C@@H]2CC[C@H]21)C[C@@]1(CCCc2cc(Cl)ccc21)CO3` [Example 100549, (1S,3′R,6′R,7′S,8′E,11′S,12′R)-6-chloro-7′-methoxy-11′,12′-dimethyl-7′-((5-oxo-4,5-dihydro-1,3-oxazol-2-yl)methyl)-3,4-dihydro-2H,15′H-spiro[naphthalene-1,22′-[20]oxa[13]thia[1,14]diazatetracyclo [14.7.2.0~3,6~.0~19,24~]pentacosa[8,16,18,24]tetraen]-15′-one 13′,13′-dioxide], the IC50 in test [1] (setting [3]) was 2.57 nM; in test [2] (setting [4]) it was 545 nM.
As for `C[C@@H]1[C@@H](C)CCC[C@](O)(CC(=O)N(C)C(C)(C)C)[C@@H]2CC[C@H]2CN2C[C@@]3(CCCc4cc(Cl)ccc43)COc3ccc(cc32)C(=O)NS1(=O)=O` (single isomer, unassigned) [Example 100143], the IC50 in test [1] (setting [3]) stood at 1.87 nM; in test [2] (setting [5]) it was 3270 nM.
In the same order, the values of `CO[C@@]1(C)/C=C/C[C@H](C)[C@@H](CCN2CCOCC2)S(=O)(=O)NC(=O)c2ccc3c(c2)N(C[C@@H]2CC[C@H]21)C[C@@]1(CCCc2cc(Cl)ccc21)CO3` (single isomer, unassigned) [Example 100595] are 0.157 nM and 133 nM.
On the same counts, the results for `C=CC[C@]1(O)CCC[C@H](C)[C@@H](C)S(=O)(=O)NC(=O)c2ccc3c(c2)N(C[C@@H]2CC[C@H]21)C[C@@]1(CCCc2cc(Cl)ccc21)CO3` (single isomer, unassigned) [Example 100266] are 0.292 nM and 571 nM.

(Values after patent publication US10821115B2, “Compounds that inhibit Mcl-1 protein” (priority 2017, dated 2020).)
